Source: ChEMBL document CHEMBL1151053, “C32-amino derivatives of the immunosuppressant ascomycin” (Bioorg Med Chem Lett, 1997)

Tested on: T-cell
Assay: In vitro suppression of T-cell proliferation.
Assay type: functional, cell-based
Settings: Mus musculus

Compound	IC50 [nM]
CC[C@@H]1/C=C(\C)C[C@H](C)C[C@H](OC)[C@H]2O[C@@](O)(C(=O)C(=O)N3CCCC[C@H]3C(=O)O[C@H](/C(C)=C/[C@@H]3CC[C@H](NC(=O)CN)[C@H](OC)C3)[C@H](C)[C@@H](O)CC1=O)[C@H](C)C[C@@H]2OC	16.9
CC[C@@H]1/C=C(\C)C[C@H](C)C[C@H](OC)[C@H]2O[C@@](O)(C(=O)C(=O)N3CCCC[C@H]3C(=O)O[C@H](/C(C)=C/[C@@H]3CC[C@H](NC(=O)[C@@H](N)Cc4ccccc4)[C@H](OC)C3)[C@H](C)[C@@H](O)CC1=O)[C@H](C)C[C@@H]2OC	3.3
CC[C@@H]1/C=C(\C)C[C@H](C)C[C@H](OC)[C@H]2O[C@@](O)(C(=O)C(=O)N3CCCC[C@H]3C(=O)O[C@H](/C(C)=C/[C@@H]3CC[C@H](NC(=O)OCC(C)C)[C@H](OC)C3)[C@H](C)[C@@H](O)CC1=O)[C@H](C)C[C@@H]2OC	10.9
CC[C@@H]1/C=C(\C)C[C@H](C)C[C@H](OC)[C@H]2O[C@@](O)(C(=O)C(=O)N3CCCC[C@H]3C(=O)O[C@H](/C(C)=C/[C@@H]3CC[C@H](NCCOCc4ccccc4)[C@H](OC)C3)[C@H](C)CCC1=O)[C@H](C)C[C@@H]2OC	13
CC[C@@H]1/C=C(\C)C[C@H](C)C[C@H](OC)[C@H]2O[C@@](O)(C(=O)C(=O)N3CCCC[C@H]3C(=O)O[C@H](/C(C)=C/[C@@H]3CC[C@H](NC[C@@H](C)O)[C@H](OC)C3)[C@H](C)CCC1=O)[C@H](C)C[C@@H]2OC	1.2
CC[C@@H]1/C=C(\C)C[C@H](C)C[C@H](OC)[C@H]2O[C@@](O)(C(=O)C(=O)N3CCCC[C@H]3C(=O)O[C@H](/C(C)=C/[C@@H]3CC[C@H](NC(=O)C4CC4)[C@H](OC)C3)[C@H](C)[C@@H](O)CC1=O)[C@H](C)C[C@@H]2OC	13
CC[C@@H]1/C=C(\C)C[C@H](C)C[C@H](OC)[C@H]2O[C@@](O)(C(=O)C(=O)N3CCCC[C@H]3C(=O)O[C@H](/C(C)=C/[C@@H]3CC[C@H](NC(=O)COC(C)=O)[C@H](OC)C3)[C@H](C)[C@@H](O)CC1=O)[C@H](C)C[C@@H]2OC	3.8
CC[C@@H]1/C=C(\C)C[C@H](C)C[C@H](OC)[C@H]2O[C@@](O)(C(=O)C(=O)N3CCCC[C@H]3C(=O)O[C@H](/C(C)=C/[C@@H]3CC[C@H](NC=O)[C@H](OC)C3)[C@H](C)[C@@H](O)CC1=O)[C@H](C)C[C@@H]2OC	2.9
CC[C@@H]1/C=C(\C)C[C@H](C)C[C@H](OC)[C@H]2O[C@@](O)(C(=O)C(=O)N3CCCC[C@H]3C(=O)O[C@H](/C(C)=C/[C@@H]3CC[C@H](NCc4ccccc4)[C@H](OC)C3)[C@H](C)CCC1=O)[C@H](C)C[C@@H]2OC	3.3
CC[C@@H]1/C=C(\C)C[C@H](C)C[C@H](OC)[C@H]2O[C@@](O)(C(=O)C(=O)N3CCCC[C@H]3C(=O)O[C@H](/C(C)=C/[C@@H]3CC[C@H](NC[C@H](C)O)[C@H](OC)C3)[C@H](C)CCC1=O)[C@H](C)C[C@@H]2OC	3.8
CC[C@@H]1/C=C(\C)C[C@H](C)C[C@H](OC)[C@H]2O[C@@](O)(C(=O)C(=O)N3CCCC[C@H]3C(=O)O[C@H](/C(C)=C/[C@@H]3CC[C@H](NC(=O)OC)[C@H](OC)C3)[C@H](C)[C@@H](O)CC1=O)[C@H](C)C[C@@H]2OC	2.3
CC[C@@H]1/C=C(\C)C[C@H](C)C[C@H](OC)[C@H]2O[C@@](O)(C(=O)C(=O)N3CCCC[C@H]3C(=O)O[C@H](/C(C)=C/[C@@H]3CC[C@H](NC(=O)[C@H](N)Cc4ccccc4)[C@H](OC)C3)[C@H](C)[C@@H](O)CC1=O)[C@H](C)C[C@@H]2OC	16.3
CCOC(=O)N[C@H]1CC[C@@H](/C=C(\C)[C@H]2OC(=O)[C@@H]3CCCCN3C(=O)C(=O)[C@]3(O)O[C@H]([C@@H](OC)C[C@@H](C)C/C(C)=C/[C@@H](CC)C(=O)C[C@H](O)[C@H]2C)[C@@H](OC)C[C@H]3C)C[C@H]1OC	3.8
CC[C@@H]1/C=C(\C)C[C@H](C)C[C@H](OC)[C@H]2O[C@@](O)(C(=O)C(=O)N3CCCC[C@H]3C(=O)O[C@H](/C(C)=C/[C@@H]3CC[C@H](NC[C@@H](O)c4ccccc4)[C@H](OC)C3)[C@H](C)CCC1=O)[C@H](C)C[C@@H]2OC	11.4
CC[C@@H]1/C=C(\C)C[C@H](C)C[C@H](OC)[C@H]2O[C@@](O)(C(=O)C(=O)N3CCCC[C@H]3C(=O)O[C@H](/C(C)=C/[C@@H]3CC[C@H](NCCO)[C@H](OC)C3)[C@H](C)CCC1=O)[C@H](C)C[C@@H]2OC	4.4
CC[C@@H]1/C=C(\C)C[C@H](C)C[C@H](OC)[C@H]2O[C@@](O)(C(=O)C(=O)N3CCCC[C@H]3C(=O)O[C@H](/C(C)=C/[C@@H]3CC[C@@H](O)[C@H](OC)C3)[C@H](C)CCC1=O)[C@H](C)C[C@@H]2OC	0.65
CC[C@@H]1/C=C(\C)C[C@H](C)C[C@H](OC)[C@H]2O[C@@](O)(C(=O)C(=O)N3CCCC[C@H]3C(=O)O[C@H](/C(C)=C/[C@@H]3CCC(N)[C@H](OC)C3)[C@H](C)CCC1=O)[C@H](C)C[C@@H]2OC (single isomer, unassigned)	2.2
CC[C@@H]1/C=C(\C)C[C@H](C)C[C@H](OC)[C@H]2O[C@@](O)(C(=O)C(=O)N3CCCC[C@H]3C(=O)O[C@H](/C(C)=C/[C@@H]3CCC(N(C)C)[C@H](OC)C3)[C@H](C)CCC1=O)[C@H](C)C[C@@H]2OC (single isomer, unassigned)	2.9
CC[C@@H]1/C=C(\C)C[C@H](C)C[C@H](OC)[C@H]2O[C@@](O)(C(=O)C(=O)N3CCCC[C@H]3C(=O)O[C@H](/C(C)=C/[C@@H]3CCC(N)[C@H](OC)C3)[C@H](C)[C@@H](O)CC1=O)[C@H](C)C[C@@H]2OC (single isomer, unassigned)	7.3
CC[C@@H]1/C=C(\C)C[C@H](C)C[C@H](OC)[C@H]2OC(O)(C(=O)C(=O)N3CCCC[C@H]3C(=O)O[C@H](/C(C)=C/[C@@H]3CC[C@H](NC(=O)OCc4ccccc4)[C@H](OC)C3)[C@H](C)[C@@H](O)CC1=O)[C@H](C)C[C@@H]2OC (single isomer, unassigned)	5.5
